Measured values taken from ChEMBL document CHEMBL1201862, “PubChem BioAssay data set” (2004).
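Five concentrations, 48 hours, 96-well plates. GI50 is the concentration that inhibits growth by half.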 Activity calls are given as the source filed them. No stated cut-off is given here; in the data, active = GI50 up to about 1.1 µM and inactive = higher.

Experiments:
Experiment in all cases: NCI-60 cell line screen, 48 h
U-251 = test system: U-251
EKVX = test system: EKVX
MDA-MB-231 = test system: MDA-MB-231
OVCAR-5 = test system: OVCAR-5
SK-MEL-2 = test system: SK-MEL-2
TK-10 = test system: TK-10
MDA-N = test system: MDA-N
786-0 = test system: 786-0
PC-3 = test system: PC-3
SK-OV-3 = test system: SK-OV-3
HCT-116 = test system: HCT-116
OVCAR-8 = test system: OVCAR-8
SNB-75 = test system: SNB-75
LOX IMVI = test system: LOX IMVI
CCRF-CEM = test system: CCRF-CEM
LXFL 529 = test system: LXFL 529
SW-620 = test system: SW-620
RXF 393 = test system: RXF 393
IGROV-1 = test system: IGROV-1
NCI/ADR-RES = test system: NCI/ADR-RES
COLO 205 = test system: COLO 205
HOP-62 = test system: HOP-62
MOLT-4 = test system: MOLT-4
KM12 = test system: KM12
T47D = test system: T47D
SNB-19 = test system: SNB-19
SR = test system: SR
DMS-273 = test system: DMS-273
HCC 2998 = test system: HCC 2998
OVCAR-4 = test system: OVCAR-4
K562 = test system: K562
HCT-15 = test system: HCT-15
HL-60 = test system: HL-60
HT-29 = test system: HT-29
HOP-92 = test system: HOP-92
CAKI-1 = test system: CAKI-1
M19-MEL = test system: M19-MEL
UO-31 = test system: UO-31
MDA-MB-435 = test system: MDA-MB-435
NCI-H460 = test system: NCI-H460
RPMI-8226 = test system: RPMI-8226
Hs-578T = test system: Hs-578T
ACHN = test system: ACHN
NCI-H226 = test system: NCI-H226
SK-MEL-28 = test system: SK-MEL-28
DLD-1 = test system: DLD-1
OVCAR-3 = test system: OVCAR-3
MCF7 = test system: MCF7
SF-295 = test system: SF-295
A498 = test system: A498
DMS-114 = test system: DMS-114
HOP-18 = test system: HOP-18
UACC-257 = test system: UACC-257
A549 = test system: A549
UACC-62 = test system: UACC-62
M14 = test system: M14
NCI-H522 = test system: NCI-H522
SF-268 = test system: SF-268
NCI-H23 = test system: NCI-H23
SF-539 = test system: SF-539
DU-145 = test system: DU-145
SK-MEL-5 = test system: SK-MEL-5
SN12C = test system: SN12C
SNB-78 = test system: SNB-78
Malme-3M = test system: Malme-3M

`COc1c(C)c2c(c(O)c1C/C=C(\C)CCC(=O)O)C(=O)OC2` [MYCOPHENOLIC ACID] was tested, and the GI50 (U-251) was 0.342 µM (active), the GI50 (EKVX) was > 100 µM (inactive) and the GI50 (MDA-MB-231) was 2 µM (inactive). The GI50 (OVCAR-5) was 7.05 µM (inactive), the GI50 (SK-MEL-2) was > 51.4 µM (inactive) and the GI50 (TK-10) was 17.4 µM (inactive). For the same compound, the GI50 (MDA-N) was 1.46 µM (inactive), the GI50 (786-0) was 0.667 µM (active) and the GI50 (PC-3) was 1.1 µM (active). For the same compound, the GI50 (SK-OV-3) was 1.43 µM (inactive), the GI50 (HCT-116) was 0.465 µM (active) and the GI50 (OVCAR-8) was 1.08 µM (active). The GI50 (SNB-75) was 6.81 µM (inactive), the GI50 (LOX IMVI) was 0.401 µM (active) and the GI50 (CCRF-CEM) was 0.49 µM (active). The GI50 (LXFL 529) was 0.693 µM (active), the GI50 (SW-620) was 0.571 µM (active) and the GI50 (RXF 393) was 2.78 µM (inactive). The GI50 (IGROV-1) was 1.18 µM (inactive), the GI50 (NCI/ADR-RES) was 2.97 µM (inactive) and the GI50 (COLO 205) was 1.08 µM (active). For the same compound, the GI50 (HOP-62) was 6.44 µM (inactive), the GI50 (MOLT-4) was 0.326 µM (active) and the GI50 (KM12) was 0.944 µM (active). For the same compound, the GI50 (T47D) was 7.33 µM (inactive), the GI50 (SNB-19) was 0.706 µM (active) and the GI50 (SR) was 0.446 µM (active). For the same compound, the GI50 (DMS-273) was 0.35 µM (active), the GI50 (HCC 2998) was 3.94 µM (inactive) and the GI50 (OVCAR-4) was > 21.8 µM (inactive). For the same compound, the GI50 (K562) was 0.396 µM (active), the GI50 (HCT-15) was 0.423 µM and the GI50 (HL-60) was 1.43 µM (inactive). The GI50 (HT-29) was 0.867 µM (active), the GI50 (HOP-92) was 4.68 µM (inactive) and the GI50 (CAKI-1) was 0.805 µM (active). For the same compound, the GI50 (M19-MEL) was 1.28 µM (inactive), the GI50 (UO-31) was 3.1 µM (inactive) and the GI50 (MDA-MB-435) was 0.871 µM (active). The GI50 (NCI-H460) was 0.488 µM (active), the GI50 (RPMI-8226) was 1.7 µM (inactive) and the GI50 (Hs-578T) was 2.51 µM (inactive). The GI50 (ACHN) was 1.75 µM (inactive), the GI50 (NCI-H226) was > 46.9 µM (inactive) and the GI50 (SK-MEL-28) was 1.91 µM (inactive). The GI50 (DLD-1) was 0.57 µM (active), the GI50 (OVCAR-3) was 2.91 µM (inactive) and the GI50 (MCF7) was 0.376 µM (active). For the same compound, the GI50 (SF-295) was 0.632 µM (active), the GI50 (A498) was > 100 µM (inactive) and the GI50 (DMS-114) was 0.845 µM (active). For the same compound, the GI50 (HOP-18) was 16.1 µM (inactive), the GI50 (UACC-257) was 4.51 µM (inactive) and the GI50 (A549) was 0.659 µM (active). The GI50 (UACC-62) was 0.881 µM (active), the GI50 (M14) was 1.58 µM (inactive) and the GI50 (NCI-H522) was 0.442 µM (active). The GI50 (SF-268) was 1.37 µM (inactive), the GI50 (NCI-H23) was 0.471 µM (active) and the GI50 (SF-539) was 1.46 µM (inactive). The GI50 (DU-145) was > 100 µM (inactive), the GI50 (SK-MEL-5) was 1.02 µM (active) and the GI50 (SN12C) was 4.1 µM (inactive).

For `Oc1ccncc1-c1cnccc1O`, the GI50 (U-251) was > 100 µM (inactive), the GI50 (EKVX) was > 100 µM (inactive) and the GI50 (TK-10) was > 100 µM (inactive). The GI50 (786-0) was > 100 µM (inactive), the GI50 (SK-OV-3) was > 100 µM (inactive) and the GI50 (HCT-116) was > 100 µM (inactive). For the same compound, the GI50 (OVCAR-8) was > 100 µM (inactive), the GI50 (SNB-75) was > 100 µM (inactive) and the GI50 (LOX IMVI) was > 100 µM (inactive). For the same compound, the GI50 (CCRF-CEM) was > 100 µM (inactive), the GI50 (LXFL 529) was > 100 µM (inactive) and the GI50 (SW-620) was > 100 µM (inactive). The GI50 (RXF 393) was > 100 µM (inactive), the GI50 (IGROV-1) was > 100 µM (inactive) and the GI50 (COLO 205) was > 100 µM (inactive). For the same compound, the GI50 (MOLT-4) was > 100 µM (inactive), the GI50 (KM12) was > 100 µM (inactive) and the GI50 (SNB-78) was > 100 µM (inactive). The GI50 (DMS-273) was > 100 µM (inactive), the GI50 (HCC 2998) was > 100 µM (inactive) and the GI50 (K562) was > 100 µM (inactive). The GI50 (HCT-15) was over 100 µM, the GI50 (HL-60) was > 100 µM (inactive) and the GI50 (HT-29) was > 100 µM (inactive). For the same compound, the GI50 (HOP-92) was > 100 µM (inactive), the GI50 (CAKI-1) was > 100 µM (inactive) and the GI50 (M19-MEL) was > 100 µM (inactive). For the same compound, the GI50 (UO-31) was > 100 µM (inactive), the GI50 (NCI-H460) was 37.5 µM (inactive) and the GI50 (RPMI-8226) was > 100 µM (inactive). The GI50 (ACHN) was > 100 µM (inactive), the GI50 (NCI-H226) was > 100 µM (inactive) and the GI50 (SK-MEL-28) was > 100 µM (inactive). The GI50 (DLD-1) was > 100 µM (inactive), the GI50 (OVCAR-3) was > 100 µM (inactive) and the GI50 (Malme-3M) was > 100 µM (inactive). The GI50 (SF-295) was > 100 µM (inactive), the GI50 (A498) was > 100 µM (inactive) and the GI50 (DMS-114) was > 100 µM (inactive). For the same compound, the GI50 (HOP-18) was > 100 µM (inactive), the GI50 (UACC-257) was > 100 µM (inactive) and the GI50 (A549) was > 100 µM (inactive). The GI50 (UACC-62) was > 100 µM (inactive), the GI50 (M14) was > 100 µM (inactive) and the GI50 (NCI-H522) was > 100 µM (inactive). For the same compound, the GI50 (NCI-H23) was > 100 µM (inactive), the GI50 (SF-539) was > 100 µM (inactive) and the GI50 (SK-MEL-5) was > 100 µM (inactive). For the same compound, the GI50 (SN12C) was > 100 µM (inactive).
